Where no end group is shown, it is not given here.
How the values were obtained:
FGFR3B = FGFR3B (Homo sapiens, UniProt P22607); experiment: SPR detection of interaction with FGFR3B; assay type: binding
NCI-H460 cells = experiment: MTT viability, NCI-H460 cells; assay type: cell-based; details: 48 h with bFGF
Protocol: (§1) In vitro anti-tumor activity of a short peptide compound P48 Hela229 (1500 cells/100 μl), B16-F10 (1000 cells/100 μl), NCI-H460 (4000 cells/100 μl) and SGC7901 (4000 cells/100 μl) cells were inoculated in 96-well plates. After incubated overnight adherently, the original medium was replaced with a Dulbecco's modified eagle medium (DMEM) containing 0.1% fetal bovine serum (FBS) or a Roswell Park Memorial Institute 1640 (RPMI-1640) medium containing 0.1% FBS, and culture was continued for 24 h. A mixture of P48 and bFGF, or bFGF alone were added into corresponding wells, and incubated for 48 h; an MTT solution (5 mg/mL) prepared by PBS was added to the cells in each well at 37° C., and treated for 4 h. The MTT was removed by aspiration, 150 μL of DMSO was added to each well, shaking was conducted for 10 min, and an optical density (OD) value was quantified with a microplate reader (SpectraMax M2/M2e, Molecular Devices, Sunnyvale, USA) at a wavelength of 490 nm. The percentage of drug growth inhibition rate was calculated by comparing with the bFGF group. […] The experimental procedure was as follows: 10% FBS-containing medium (500 μl) was added to a lower surface of a transwell insertion chamber, the cells together with the drug were inoculated into an upper chamber, and cultured with a serum-free medium (200 μl). […]

[1] = Half-life of peptides in human plasma (incubation, SPE, liquid chromatography); assay type: in vitro ADME; details: compared with precursor peptide P9
FGFR1 = FGFR1 (Homo sapiens, UniProt P11362); experiment: Western blot of FGFR1 signaling pathway in cervical cancer cells Hela229; assay type: cell-based; parameters: endogenous in cells; host or cells: Hela229; NCI-H460; SGC-7901; MGC-803; details: bFGF stimulation
Protocol: Cervical cancer cells Hela229, melanoma B16-F10, lung cancer cells NCI-H460, gastric cancer cells SGC-7901 and MGC-803 were inoculated into 6-well plates, respectively. After growing adherently overnight, the cells were pretreated with P48 for 10 min or with AZD4547/SSR for 2 h, and incubated with bFGF for 15 min or with KGF for 20 min.

Hela229 cells = experiment: MTT viability, Hela229 cells; assay type: cell-based; details: 48 h with bFGF
Protocol: as §1

EGFR = target: T1, EGFR (Homo sapiens, UniProt P00533, DEL746-750); experiment: Western blot of EGFR and ERK1/2 in PC-9 cells under EGF stimulation; assay type: cell-based; details: EGF 10 min
T1 construct: endogenous in cells; host or cells: PC-9

FGFR2B = FGFR2B (Homo sapiens, UniProt P21802); experiment: SPR detection of interaction with FGFR2B; assay type: binding
SGC-7901 cells = experiment: MTT viability, SGC-7901 cells; assay type: cell-based; details: 48 h with bFGF
Protocol: as §1

Sequence of FGFR3B (P22607 23-808 isoform P22607-2 limits assumed): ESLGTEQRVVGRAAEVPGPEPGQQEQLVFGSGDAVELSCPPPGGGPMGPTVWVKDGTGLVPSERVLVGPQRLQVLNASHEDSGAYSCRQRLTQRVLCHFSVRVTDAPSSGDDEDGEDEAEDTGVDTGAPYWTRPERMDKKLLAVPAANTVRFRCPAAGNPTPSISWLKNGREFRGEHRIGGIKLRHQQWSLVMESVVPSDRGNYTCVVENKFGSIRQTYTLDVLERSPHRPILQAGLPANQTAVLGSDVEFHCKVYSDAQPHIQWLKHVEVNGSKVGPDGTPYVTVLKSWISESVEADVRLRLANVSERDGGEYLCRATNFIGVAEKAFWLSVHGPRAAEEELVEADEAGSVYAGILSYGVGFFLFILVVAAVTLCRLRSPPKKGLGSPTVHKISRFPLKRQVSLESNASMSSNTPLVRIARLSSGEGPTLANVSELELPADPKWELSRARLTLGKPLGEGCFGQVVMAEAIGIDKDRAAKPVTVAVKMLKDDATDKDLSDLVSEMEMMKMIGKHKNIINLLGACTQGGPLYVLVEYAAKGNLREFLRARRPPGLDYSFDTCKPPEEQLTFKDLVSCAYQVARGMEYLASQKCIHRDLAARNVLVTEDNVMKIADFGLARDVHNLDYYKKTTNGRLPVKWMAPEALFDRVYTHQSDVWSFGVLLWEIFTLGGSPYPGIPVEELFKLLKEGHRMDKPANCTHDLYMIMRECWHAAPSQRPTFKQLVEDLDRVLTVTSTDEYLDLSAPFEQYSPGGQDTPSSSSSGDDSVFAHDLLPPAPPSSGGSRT
Sequence of FGFR1 (P11362 22-822): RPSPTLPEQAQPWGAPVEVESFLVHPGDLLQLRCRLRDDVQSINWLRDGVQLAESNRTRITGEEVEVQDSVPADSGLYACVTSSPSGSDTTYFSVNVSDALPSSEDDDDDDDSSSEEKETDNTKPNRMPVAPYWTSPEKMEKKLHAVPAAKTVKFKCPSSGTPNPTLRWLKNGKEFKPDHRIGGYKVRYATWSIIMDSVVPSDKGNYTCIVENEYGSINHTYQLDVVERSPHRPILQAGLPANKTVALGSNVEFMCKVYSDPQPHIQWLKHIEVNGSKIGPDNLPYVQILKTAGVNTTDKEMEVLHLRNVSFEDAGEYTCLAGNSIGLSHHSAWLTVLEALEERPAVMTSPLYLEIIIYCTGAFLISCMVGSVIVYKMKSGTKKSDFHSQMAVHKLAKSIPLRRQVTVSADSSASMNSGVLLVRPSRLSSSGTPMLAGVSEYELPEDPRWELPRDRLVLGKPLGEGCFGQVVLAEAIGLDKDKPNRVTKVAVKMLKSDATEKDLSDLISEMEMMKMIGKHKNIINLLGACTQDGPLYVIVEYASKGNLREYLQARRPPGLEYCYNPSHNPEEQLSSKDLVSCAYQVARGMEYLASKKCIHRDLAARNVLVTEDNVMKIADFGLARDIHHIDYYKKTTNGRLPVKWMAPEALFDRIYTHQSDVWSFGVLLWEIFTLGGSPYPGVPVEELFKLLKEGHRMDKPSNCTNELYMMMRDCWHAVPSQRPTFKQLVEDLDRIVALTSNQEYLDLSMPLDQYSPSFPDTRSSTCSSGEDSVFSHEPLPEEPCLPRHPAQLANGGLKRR
Sequence of FGFR2B (P21802 22-822 isoform P21802-3 limits assumed): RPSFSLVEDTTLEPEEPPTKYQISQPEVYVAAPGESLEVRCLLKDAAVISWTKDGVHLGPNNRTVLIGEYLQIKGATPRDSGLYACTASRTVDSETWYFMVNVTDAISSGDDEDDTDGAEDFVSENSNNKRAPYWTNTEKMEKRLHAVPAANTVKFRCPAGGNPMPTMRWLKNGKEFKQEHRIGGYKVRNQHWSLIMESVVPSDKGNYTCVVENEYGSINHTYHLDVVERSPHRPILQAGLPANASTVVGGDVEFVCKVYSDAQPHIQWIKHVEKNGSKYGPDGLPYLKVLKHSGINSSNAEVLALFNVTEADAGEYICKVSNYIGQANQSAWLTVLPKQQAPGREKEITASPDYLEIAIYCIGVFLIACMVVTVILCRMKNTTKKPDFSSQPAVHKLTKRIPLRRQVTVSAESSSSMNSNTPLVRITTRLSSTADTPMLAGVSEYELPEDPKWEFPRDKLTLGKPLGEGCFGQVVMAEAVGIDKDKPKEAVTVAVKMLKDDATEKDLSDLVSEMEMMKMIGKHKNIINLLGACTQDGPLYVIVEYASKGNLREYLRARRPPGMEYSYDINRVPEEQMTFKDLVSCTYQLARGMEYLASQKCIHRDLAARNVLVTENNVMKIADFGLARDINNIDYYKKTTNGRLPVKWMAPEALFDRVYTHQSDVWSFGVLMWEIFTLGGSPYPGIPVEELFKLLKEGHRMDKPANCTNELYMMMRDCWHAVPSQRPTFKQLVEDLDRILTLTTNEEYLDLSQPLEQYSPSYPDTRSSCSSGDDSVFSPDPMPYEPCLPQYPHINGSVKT

SPPRYPGGGS-NH2 [P48, Ser-Pro-Pro-Arg-Tyr-Pro-Gly-Gly-Gly-Ser-NH2]
binding to FGFR3B (FGFR3B): can be bound
inhibition of cancer cell viability (NCI-H460 cells): can significantly inhibit the viability of cancer cells
half-life in plasma [1]: relatively prolonged half-life
inhibition of FGFR1 signaling pathway (FGFR1): can inhibit the FGFR1 signaling pathway of cervical cancer, melanoma, lung cancer and gastric cancer in a concentration-dependent manner
inhibition of cancer cell viability (Hela229 cells): can significantly inhibit the viability of cancer cells
effect on EGF stimulation (phosphorylated EGFR and ERK1/2) (EGFR): has no effect
binding to FGFR2B (FGFR2B): can be bound
inhibition of cancer cell viability (SGC-7901 cells): can significantly inhibit the viability of cancer cells

From patent US20240101600A1, “FIBROBLAST GROWTH FACTOR RECEPTOR (FGFR)-TARGETING ANTAGONISTIC SHORT PEPTIDE” (WENZHOU MEDICAL UNIVERSITY, priority 2019, published 2024)
